From patent publication US20220128542A1, “TREATMENT EFFICIENCY EVALUATION” (TX MEDIC AB, priority 2019, published 2022)
Like-named read-outs stand apart in the source and are kept apart here.

Tested on: brain of rats subjected to severe traumatic brain injury (sTBI)
[1] = 1 mg/kg, 2 days post-TBI, of 221 genes
[2] = 1 mg/kg, 7 days post-TBI, of 2741 genes
[3] = 5 mg/kg, 2 days post-TBI, of 221 genes
[4] = 5 mg/kg, 7 days post-TBI, of 2741 genes
[5] = 15 mg/kg, 2 days post-TBI, of 221 genes
[6] = 15 mg/kg, 7 days post-TBI, of 2741 genes
[7] = 3 repeated doses of 15 mg/kg, 7 days post-TBI, of 2741 genes
[8] = DS 1 mg/kg, day 7 following TBI, relative to TBI model
[9] = DS 5 mg/kg, day 7 following TBI, relative to TBI model
[10] = DS 15 mg/kg, day 7 following TBI, relative to TBI model

Description: As a starting point, a list and expression levels of molecules differentially regulated by dextran sulfate relative to a TBI model for the three different doses (1 mg/kg, 5 mg/kg and 15 mg/kg) of dextran sulfate at day 7 following TBI were established.
Male Wistar rats of 300-350 g body weight were fed with standard laboratory diet and water ad libitum in a controlled environment. As the anesthetic mixture, the animals received 35 mg/kg b.w. ketamine and 0.25 mg/kg body weight midazolam by i.p. injection. Severe traumatic brain injury (sTBI) was induced by dropping a 450 g weight from 2 m height on to the rat head that had been protected by a metal disk previously fixed on the skull, according to the “weight drop” impact acceleration model (Marmarou et al., J Neurosurg. 1994; 80: 291-300). […] At the end of each period of treatment, rats were anesthetized again and then immediately sacrificed.
LMW-DS (Tikomed AB) was provided at a stock concentration of 20 mg/ml and was kept in a temperature-monitored refrigerator at 4° C. LMW-DS aliquots were diluted to the appropriate dosing concentration in sterile saline prior to delivery of a single subcutaneous injection.
Three doses of LMW-DS were administered subcutaneously 30 minutes post-TBI. The animals were sacrificed at 2 days post-TBI. The animals were divided into the following subgroups:
Three doses of LMW-DS were administered subcutaneously 30 minutes post-TBI. The animals were sacrificed at 7 days post-TBI. The animals were divided into the following subgroups:
An in vivo craniectomy was performed on all animals during anesthesia. After carefully removing the rat's skull, the brain was exposed and removed with a surgical spatula and quickly dropped in RNALater and preserved at 4° C. for further processing.
The arrays used were the Agilent Rat expression arrays.
Statistical analysis was performed to quantitate the effect of sTBI on the brain in this model. The follow-on analyses looked at the effects of LMW-DS in this model using different iterations and algorithms. Statistical analysis was carried out using the Metaboanalyst software package. Gene expression changes of 10% with a p<0.05 were regarded as significant.

## sodium salt of dextran sulfate [LMW-DS]
1 mg/kg within 30 min after injury, 2 days of sTBI
  genes with altered TBI-specific expression: 372 genes
1 mg/kg within 30 min after injury, 7 days of sTBI
  genes with altered TBI-specific expression: 3602 genes
1 mg/kg, 2 days after sTBI
  genes differing from healthy controls: 209 genes
[1]
  TBI-deregulated genes remaining deregulated relative to healthy controls: 22 genes
  share of TBI-deregulated genes remaining deregulated: 10%
1 mg/kg, 7 days after sTBI
  genes differing from healthy controls: 282 genes
[2]
  TBI-deregulated genes remaining deregulated relative to healthy controls: 124 genes
  share of TBI-deregulated genes remaining deregulated: 4.5%
5 mg/kg within 30 min after TBI, 2 days of sTBI
  genes with altered TBI-specific expression: 702 genes
5 mg/kg within 30 min after TBI, 7 days of sTBI
  genes with altered TBI-specific expression: 3852 genes
5 mg/kg, 2 days after sTBI
  genes differing from healthy controls: 258 genes
[3]
  TBI-deregulated genes remaining deregulated relative to healthy controls: 51 genes
  share of TBI-deregulated genes remaining deregulated: 23%
5 mg/kg, 7 days after sTBI
  genes differing from healthy controls: 398 genes
[4]
  TBI-deregulated genes remaining deregulated relative to healthy controls: 169 genes
  share of TBI-deregulated genes remaining deregulated: 6.1%
15 mg/kg within 30 min after TBI, 2 days of sTBI
  genes with altered TBI-specific expression: 247 genes
15 mg/kg within 30 min after TBI, 7 days of sTBI
  genes with altered TBI-specific expression: 3901 genes
15 mg/kg, 2 days after sTBI
  genes differing from healthy controls: 47 genes
[5]
  TBI-deregulated genes remaining deregulated relative to healthy controls: 19 genes
  share of TBI-deregulated genes remaining deregulated: 8.5%
15 mg/kg, 7 days after sTBI
  genes differing from healthy controls: 158 genes
[6]
  TBI-deregulated genes remaining deregulated relative to healthy controls: 85 genes
  share of TBI-deregulated genes remaining deregulated: 3.1%
3 repeated doses of 15 mg/kg, 7 days after sTBI
  genes differing from healthy controls: 234 genes
[7]
  TBI-deregulated genes remaining deregulated relative to healthy controls: 116 genes
  share of TBI-deregulated genes remaining deregulated: 4.25%
[8]
  AFP fold change (FC): −1.439
  ATP2A3 fold change (FC): −1.284
  ATP8A1 fold change (FC): 1.280
  BDNF fold change (FC): 1.635
  CRH fold change (FC): 1.253
  FGF1 fold change (FC): −1.366
  HBEGF fold change (FC): 1.235
  IL-17B fold change (FC): 1.863
  KITLG fold change (FC): −1.251
  LDLR fold change (FC): 1.364
  NOG fold change (FC): 1.304
  PF4 fold change (FC): −1.453
  SLC1A4 fold change (FC): 1.498
  SLC7A11 fold change (FC): 1.490
  SLC16A7 fold change (FC): 1.493
  SLC29A1 fold change (FC): −1.370
  SLC40A1 fold change (FC): −1.345
  TNFSF15 fold change (FC): 3.878
  TSLP fold change (FC): 1.389
  TTR fold change (FC): −2.531
  VAV3 fold change (FC): −1.505
[9]
  AFP fold change (FC): −1.280
  ATP2A3 fold change (FC): −1.205
  ATP8A1 fold change (FC): 1.223
  BDNF fold change (FC): 1.708
  CRH fold change (FC): 1.316
  FGF1 fold change (FC): −1.382
  HBEGF fold change (FC): 1.274
  IL-17B fold change (FC): 1.765
  KITLG fold change (FC): −1.274
  LDLR fold change (FC): 1.291
  NOG fold change (FC): 1.305
  PF4 fold change (FC): −1.331
  SLC1A4 fold change (FC): 1.531
  SLC4A1 fold change (FC): −1.442
  SLC7A11 fold change (FC): 1.469
  SLC16A7 fold change (FC): 1.441
  SLC29A1 fold change (FC): −1.377
  SLC40A1 fold change (FC): −1.338
  TNFSF15 fold change (FC): 4.302
  TSLP fold change (FC): 1.446
  TTR fold change (FC): −1.915
  VAV3 fold change (FC): −1.418
[10]
  AFP fold change (FC): −1.208
  ATP2A3 fold change (FC): −1.216
  ATP8A1 fold change (FC): 1.212
  BDNF fold change (FC): 1.557
  CRH fold change (FC): 1.293
  FGF1 fold change (FC): −1.213
  GOSR1 fold change (FC): 1.233
  HBEGF fold change (FC): 1.250
  IL36RN fold change (FC): 1.284
  IL-17B fold change (FC): 1.729
  KITLG fold change (FC): −1.261
  LDLR fold change (FC): 1.212
  NOG fold change (FC): 1.281
  PF4 fold change (FC): −1.244
  SLC1A4 fold change (FC): 1.518
  SLC4A1 fold change (FC): −1.213
  SLC7A11 fold change (FC): 1.477
  SLC16A7 fold change (FC): 1.408
  SLC29A1 fold change (FC): −1.316
  SLC40A1 fold change (FC): −1.348
  TNFSF15 fold change (FC): 3.939
  TSLP fold change (FC): 1.322
  TTR fold change (FC): −2.179
  VAV3 fold change (FC): −1.318
